What was measured:
[1] = tested on: mHTT; assay: Mutant and total HTT multiplex HTRF assay in Q48 HTT human embryonic stem cell line: mHTT; assay type: cell-based; settings: Q48 HTT hESC, 48 hours
Method in brief: (§1)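 Q48 HTT hESCs from HD donors were treated with compound for 48 h at 37 °C after 24 h adherence, then lysed. Lysates were read by multiplex HTRF with N-terminal donor, polyQ (MW1) and post-polyQ (MAB2166) antibodies for 4-6 h at RT. Donor/acceptor ratios give relative mHTT and tHTT; pIC50 reported.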

[2] = tested on: tHTT; assay: Mutant and total HTT multiplex HTRF assay in Q48 HTT human embryonic stem cell line: tHTT; assay type: cell-based; settings: Q48 HTT hESC, 48 hours
Method in brief: as §1

| SMILES | Rating (based on mHTT potency) [1] | mHTT pIC50 [1] | tHTT pIC50 [2] |
| --- | --- | --- | --- |
| COc1ccc(-c2ccc(-c3ccc(N(C)C4CC(C)(C)NC(C)(C)C4)nn3)c(O)c2)cn1 [Compound 67, 5-(6-methoxypyridin-3-yl)-2-(6-(methyl(2,2,6,6-tetramethylpiperidin-4-yl)amino)pyridazin-3-yl)phenol] | *** (a pIC50 value between 6.5 and 7.0 is indicated by three stars (***)) | 6.547 | 6.452 |
| CN(c1ccc(-c2cc3ccc(OCCC(C)(C)O)cc3cc2O)nn1)C1CC(C)(C)NC(C)(C)C1 [Compound 68, 7-(3-hydroxy-3-methylbutoxy)-3-(6-(methyl(2,2,6,6-tetramethylpiperidin-4-yl)amino)pyridazin-3-yl)naphthalen-2-ol] | *** (a pIC50 value between 6.5 and 7.0 is indicated by three stars (***)) | 6.529 | 6.488 |
| CC1CC(Oc2ccc(-c3ccc(-c4cn[nH]c4)cc3O)nn2)CC(C)N1 (stereo not shown) [Compound 69, 2-(6-((2,6-dimethylpiperidin-4-yl)oxy)pyridazin-3-yl)-5-(1H-pyrazol-4-yl)phenol] | **** (a pIC50 value between 7.0 and 7.5 is indicated by four stars (****)) | 7.1525 | 7.089 |
| C[C@@H]1CC(Oc2ccc(-c3ccc(-n4cccn4)cc3O)nn2)C[C@@H](C)N1 (stereo partly drawn) [Compound 70, 2-(6-(((2R,6R)-2,6-dimethylpiperidin-4-yl)oxy)pyridazin-3-yl)-5-(1H-pyrazol-1-yl)phenol] | * (a pIC50 value between 5 and 6 is indicated by a single star (*)) | 5.999 | 5.806 |
| Oc1ccc2cc(-c3ccc(C4CCNCC4)nn3)c(O)cc2c1 [Compound 71, 3-(6-(piperidin-4-yl)pyridazin-3-yl)naphthalene-2,7-diol] | * (a pIC50 value between 5 and 6 is indicated by a single star (*)) | 5.996 | 5.997 |
| CC1(C)CC(Oc2ccc(-c3ccc(-n4cccn4)cc3O)nn2)CCN1 (stereo not shown) [Compound 72, 2-(6-((2,2-dimethylpiperidin-4-yl)oxy)pyridazin-3-yl)-5-(1H-pyrazol-1-yl)phenol] | ** (a pIC50 value between 6 and 6.5 is indicated by two stars (**)) | 6.21 | 6.13 |
| Oc1cc(-c2cn[nH]c2)ccc1-c1ccc(N2C[C@H]3CNC[C@H]3C2)nn1 [Compound 74, 2-(6-((3aR,6aS)-hexahydropyrrolo[3,4-c]pyrrol-2(1H)-yl)pyridazin-3-yl)-5-(1H-pyrazol-4-yl)phenol] | ** (a pIC50 value between 6 and 6.5 is indicated by two stars (**)) | 6.03 | 6.02 |
| COc1cc(-c2cnn(C)c2)ccc1-c1nnc(N2CC3(CCNCC3)C2)s1 [Compound 75, 2-(2-methoxy-4-(1-methyl-1H-pyrazol-4-yl)phenyl)-5-(2,7-diazaspiro[3.5]nonan-2-yl)-1,3,4-thiadiazole] | ** (a pIC50 value between 6 and 6.5 is indicated by two stars (**)) | 6.4375 | 6.4335 |
| CN(c1nnc(-c2ccc(-c3cn[nH]c3)cc2F)s1)C1CC(C)(C)NC(C)(C)C1 [Compound 76, 5-(2-fluoro-4-(1H-pyrazol-4-yl)phenyl)-N-methyl-N-(2,2,6,6-tetramethylpiperidin-4-yl)-1,3,4-thiadiazol-2-amine] | ** (a pIC50 value between 6 and 6.5 is indicated by two stars (**)) | 6.0645 | 6.075 |
| CN(c1nnc(-c2cc3cc(C#N)ccc3s2)s1)C1CC(C)(C)NC(C)(C)C1 [Compound 77, 2-(5-(methyl(2,2,6,6-tetramethylpiperidin-4-yl)amino)-1,3,4-thiadiazol-2-yl)benzo[b]thiophene-5-carbonitrile] | ** (a pIC50 value between 6 and 6.5 is indicated by two stars (**)) | 6.137 | 6.1615 |
| CN(c1nnc(-c2cc3c(cc2O)C(=O)CC3)s1)C1CC(C)(C)NC(C)(C)C1 [Compound 78, 6-hydroxy-5-(5-(methyl(2,2,6,6-tetramethylpiperidin-4-yl)amino)-1,3,4-thiadiazol-2-yl)-2,3-dihydro-1H-inden-1-one] | ** (a pIC50 value between 6 and 6.5 is indicated by two stars (**)) | 6.264 | 6.152 |
| Cc1cc(-c2ccc(-c3nnc(N(C)C4CC(C)(C)NC(C)(C)C4)s3)c(F)c2)[nH]n1 [Compound 79, 5-(2-fluoro-4-(3-methyl-1H-pyrazol-5-yl)phenyl)-N-methyl-N-(2,2,6,6-tetramethylpiperidin-4-yl)-1,3,4-thiadiazol-2-amine] | * (a pIC50 value between 5 and 6 is indicated by a single star (*)) | 5.9315 | 6.01 |
| COc1cc(-c2cn[nH]c2)cc(F)c1-c1nnc(N(C)C2CC(C)(C)NC(C)(C)C2)s1 [Compound 80, 5-(2-fluoro-6-methoxy-4-(1H-pyrazol-4-yl)phenyl)-N-methyl-N-(2,2,6,6-tetramethylpiperidin-4-yl)-1,3,4-thiadiazol-2-amine] | ** (a pIC50 value between 6 and 6.5 is indicated by two stars (**)) | 6.2465 | 6.071 |
| CN(c1ccc(-c2ccc3nccn3c2)nn1)C1CC(C)(C)NC(C)(C)C1 [Compound 81, 6-(imidazo[1,2-a]pyridin-6-yl)-N-methyl-N-(2,2,6,6-tetramethylpiperidin-4-yl)pyridazin-3-amine] |  | <5 | <5 |
| Oc1cc2ccccc2cc1-c1ccc(CC2CCNCC2)nn1 [Compound 82, 3-(6-(piperidin-4-ylmethyl)pyridazin-3-yl)naphthalen-2-ol] |  | <5 | <5 |

From US20240216369A1, “THE USE OF A SPLICING MODULATOR FOR A TREATMENT SLOWING PROGRESSION OF HUNTINGTON'S DISEASE” (Novartis AG, priority 2019, published 2024)
